# Measurements taken from patent publication US11707448B2, “Combination therapies for the treatment of cancer” (Eisai R&D Management Co., Ltd., priority 2014, dated 2023).
# Columns and labels:
# CT26 cells = assay: Rechallenge of cured (tumor-free) mice with CT26 cells; assay type: in vivo; conditions: mice cured by ER-886046 + radiation
# From the text: (§1) FIG. 4A to FIG. 4C. Long lasting anti-tumor effect with a memory immune response by ER-886046/radiation treatment. Panel shown in FIG. 4A) Tumor growth in the cured mice by ER-886046 and radiation combination treatment or in the naïve Ba1B/c mice that received injection of CT26 cells. Panel shown in FIG. 4B) Tumor growth of secondarily challenged CT-26 tumors in the cured mice or in naïve mice. Panel shown in FIG. 4C) Growth of 4T1 tumors in cured mice or in naïve mice. N=9-10. Note the complete rejection of challenged CT-26 tumor and reduced growth of challenged 4T1 tumors in the combination cured mice. ***, p<0.001. 2 tailed student t-test. Note that no treatment was applied to any animals.
# (§2) In case of tumor rechallenge of tumor-free mice after treatments, CT26 cells and 4T1 cells were individually sc injected into the different flanks of the same mouse, and the growth of each tumor was measured and graphed as described above. Naïve mice that received neither cancer cell injection nor drug treatment were included as controls. […] At the end of study on day 27, the mice in all treatment groups were intranasally administered luciferin and the lungs were resected and analysed for luciferase expression using IVIS instrument. Quantification of the luciferase activity in the lungs was achieved by software Living Image.
# B16F10 melanoma tumors = assay: B16F10 melanoma model, ER-886046 with anti-CTLA4; assay type: in vivo, mice
# Experimental: FIG. 8A to FIG. 8B. Synergistic anti-tumor activity of ER-886046 with anti-CTLA4 in B16F10 tumors. Panel shown in FIG. 8A) Anti-tumor growth activities of anti-CTLA4 and ER-886046 in B16F10 melanoma tumors growing in C57BL/6 mice. Panel shown in FIG. 8B) Animal body weight changes of the treatment groups. Anti-CTLA4 dosing: 200 μg for the first intravenous (iv) injection on day 3 after transplantation and 100 μg for the other three iv injections on days 6, 9 and 12 as indicated by the arrows. ER-886046 dosing: 150 mg/kg, po daily administration from day 3 to day 15 as indicated by the bars. *, p<0.05; **, p<0.01; ns, not significant; student t test.
# Animal studies; In vitro cultured cancer cells were harvested and suspended in 100 μl of phosphate buffered saline at a cell concentration of 1.0×10^5 cells/ml and subcutaneously (sc) injected into the mice using a 26 g syringe on day 0. At the days post cell implantation as indicated in the figures, the mice were randomized based on the tumor size followed by treatments with radiation at 3 or 9 Gy dose per treatment, anti-PDL1 at 200 μg/mouse per intraperitoneal injection (ip), or anti-CTLA4 at 200 or 100 μg/mouse per ip injection with or without orally administration of ER-886046 at a dose of 150 mg/kg. The animals that were assigned to the treatment groups in individual study had close mean tumor weights in all groups. The tumor sizes were measured twice a week by a digital caliper (Mitutoyo Corp), and the volume was calculated using the formula (1×w^2)/2=mm^3, where 1 and w refer to the larger and smaller perpendicular dimensions collected at each measurement. Graphs of group tumor sizes (mean±SEM) and body weights (mean±SEM) versus time were plotted using software GraphPad Prism 6 (Lake Forest, Calif.). Student t-test and Gehan-Breslow-Wilcoxon test were used for statistical analysis.
# 4T1-luc2 tumors = assay: Spontaneous lung metastasis in 4T1-luc2 breast tumor model; assay type: in vivo, mice; conditions: ER-886046 150 mg/kg po daily days 9-27 + single radiation 9 Gy; day 27
# Experimental: FIG. 6A to FIG. 6B. Anti-pulmonary metastasis activity of ER-886046/radiation in breast 4T1 tumor model. 4T1-luc2 cells were subcutaneously (sc) inoculated into the Ba1B/c mice. When the average size of tumors reached 100 mm^3, the tumors were radiated with a dose of 9 Gy once with or without daily oral administration of ER-886046 at dose of 150 mg/kg. Panel shown in FIG. 6A) At the end of study on day 27, lung metastasis of the animals was analyzed and quantified by luciferase expression. Panel shown in FIG. 6B) Representative IVIS images of each group are shown. Student t-test was used for statistic analysis.
# as §2, with “above.” for “above. Naïve mice that received neither cancer cell injection nor drug treatment were included as controls.”
# Anti-spontaneous metastatic effect of ER-886046 and radiation combination therapy. […] At day 27, the mice in all treatment groups were intranasally administered luciferin and the lungs were resected and analyzed for luciferase expression.
# CT26 tumors = assay: Bilateral CT26 tumor model (abscopic effect); assay type: in vivo, mice
# Experimental: FIG. 5A to FIG. 5B. Anti-tumor effect of ER-886046/radiation in a bilateral tumor model. Two similar-sized CT-26 tumors were grown in a host by injecting CT26 cells subcutaneously on both right and left flanks of Ba1B/c mice. Radiation was applied to the right flank tumor on both day 9 and day 13 as indicated by arrows in panel A. ER-886046 was administered daily po to the animals at a dose of 150 mg/kg as indicated by the bars. ER-886046 was dosed to animals from day 9 to day 27. Panel shown in FIG. 5A) Average size of the right flank tumor that received radiation and ER-886046. Panel shown in FIG. 5B) Average size of the left flank tumor that received no radiation (radiation administered only to the right flank tumor).
# Abscopic effect of the combination treatment of ER-886046 and radiation in an animal model. Induction of anti-tumor immune response can be systemic and thus highly valuable for treating metastatic cancer, which has multiple lesions in one host. To mimic the large metastatic lesions in mice, we simultaneously grew CT26 tumors on both sides of an individual mouse by subcutaneously injecting cancer cells. The tumors on the right side of the mice were treated with both radiation and ER-886046. The tumors on the left side of the mice received ER-886046 only.
# 4T1 tumors = assay: Challenge of cured (tumor-free) mice with 4T1 cells; assay type: in vivo; conditions: mice cured by ER-886046 + radiation; vs control (naive) group
# From the text: as §1, §2
smiles,measurement,setting,value
C[C@H](NC(=O)c1c(C(F)F)nn(C)c1Oc1cccc(C(F)(F)F)c1)c1ccc(C(=O)O)cc1 [ER-886046],tumor growth after secondary CT26 challenge,CT26 cells; 1.5 months after the first challenge,did not produce detectable tumor
same,tumor growth after CT26 challenge at another site,"CT26 cells; monitored 1.5 months, no further treatment",did not grow tumors at all
same,"anti-tumor growth activity, combination","B16F10 melanoma tumors; ER-886046 150 mg/kg po daily day 3-15 + anti-CTLA4 200/100 μg days 3, 6, 9, 12",highly significant anti-tumor activity
same,animal body weight,B16F10 melanoma tumors; ER-886046 + anti-CTLA4 combination,No animal body weight loss
same,"anti-tumor growth activity, single agent","B16F10 melanoma tumors; alone, ER-886046 150 mg/kg po daily day 3-15, anti-CTLA4 200 μg day 3, 100 μg days 6, 9, 12",minimal activity
same,luciferase expression in lungs (lung metastasis),4T1-luc2 tumors,significant reduction
same,growth of right side tumor (radiated),"CT26 tumors; ER-886046 150 mg/kg po daily day 9-27 + radiation of right flank tumor day 9 and 13, vs radiation alone or ER-886046 alone",better tumor growth suppression
same,growth of left side tumor (not radiated),"CT26 tumors; ER-886046 150 mg/kg po daily day 9-27, radiation only to right flank tumor, vs no ER-886046 treatment",significantly reduced tumor growth rate
same,growth of 4T1 tumors in cured mice,4T1 tumors,"no rejection of the tumor, but the growth rate was significantly reduced"
